The values below come from patent US20230263762A1, “COMPOSITION AND METHOD FOR TREATING INFECTIONS” (priority 2020, published 2023).

One assay deals with SARS-CoV-2. Briefly: Direct injection of Sx mixture or its components into virus suspension, Vero E6 plaque assay. It counts as cell-based. To be noted: for activity of the component alone: direct injection (FIGS. 20 and 21).
Assay [1] relates to SARS-CoV-2 (USA-WA1/2020 strain). Briefly: Direct injection into viral suspension, plaque assay on Vero E6 cells. The following applies: for reduction of viral burden by individual components: 1.4 and 3.9 µls propionic acid, 0.6 and 1.1 µls isoamyl hexanoates; for decline in viral burden: 360 mins post-addition. The class given is cell-based.
Assay [2] concerns the target RBD of the SARS-CoV-2 spike protein to ACE2 (Severe acute respiratory syndrome coronavirus 2, UniProt P0DTC2). The following applies: cited from earlier work.
[3] abbreviates: propionic acid alone, direct injection.

As for `CCC(=O)O` [propionic acid], in the assay on SARS-CoV-2 (acid alone at 3.9 µL), the “reduction in activity of the virus” value is “about 0.5 log”. Besides, the “activity of the component alone” value with SARS-CoV-2 is reported as “only has marginal biological activity”. In addition, in the assay on SARS-CoV-2 (propionic acid alone at 7.7 µL), the “time to complete inactivation of the virus” value worked out at 220 min. Besides, in the assay with SARS-CoV-2 (setting [3]), the “volume of acid necessary for relative immediate inactivation of the virus” value is given as “at least 15.4 µL” and the “volume of acid necessary to get any appreciable activity” value is reported as “up to 7.7 µL”. Besides, the “reduction of viral burden by individual components” value in assay [1] is recorded as “minimal reduction of viral burden”. Moreover, in assay [1] (1.4 µls alone), the “decline in viral burden” value is 0.29 log10 PFU/ml. The “decline in viral burden” value in assay [1] (3.9 µls alone) was 0.98 log10 PFU/ml. Also, in assay [1] (7.7 µl alone, direct injection), the “time to undetectable levels of virus” value turned out to be 240 min. Moreover, in assay [1] (15.4 µls alone, direct injection), the “time to undetectable viral burden” value worked out at 15 min. Besides, in assay [1] (direct injection, entire 360 min study (AUC of viral burden-time), 37° C.), the “EC50 volume over the entire study” value amounted to 6.2 µls.
Regarding GluGluLeuGlu, the “reduction of the binding affinity of RBD to ACE2” value in assay [2] (addition of peptide to SARS-CoV-2) was 34%. In assay [2] (peptide added to the virus), the “reduction of virus activity” value is on record as 34%.
Take isoamyl hexanoates: the “activity of the component alone” value with SARS-CoV-2 was “no lasting activity”. Moreover, the “reduction in activity of the virus” value in the assay on SARS-CoV-2 (esters alone (1.1 µL), at about 100 min) was roughly 1 log. The “reduction in virus activity” value with SARS-CoV-2 (esters alone, highest concentration of 4.6 µL, over 300 minutes) is on record as 1 order of magnitude. In the assay with SARS-CoV-2 (esters alone, within about 30 min, over the range of concentrations tested), the “general reduction in virus activity” value is listed as roughly 1 log. Besides, the “reduction of viral burden by individual components” value in assay [1] is on record as “minimal reduction of viral burden”. For the same compound, the “suppression of SARS-CoV-2 replication, component alone” value in assay [1] (direct injection, all treatment arms (FIG. 7B)) is “substantially less effective”.
